Assay results: patent publication US4096257A, “Substituted imidazo [1,2-d]-as-triazines” (American Cyanamid Company, priority 1977, dated 1978)

System: Mouse Skin Phosphodiesterase (cyclic-AMP phosphodiesterase)
Assay: mouse skin phosphodiesterase (PDE) inhibition test
Type: biochemical
Set-up: key to Mouse Skin Phosphodiesterase: Active: A compound is considered active if it inhibits more than theophylline, that is, to 50% of control at 1 mM concentration of compound, or to 80% of control of 0.05 mM concentration of compound
Conditions: for Mouse Skin Phosphodiesterase: hairless mouse epidermal PDE, 3H-cyclic AMP substrate, final concentration of test compounds 10 ug./ml

CCCc1n[nH]c(=O)c2nccn12 [5-n-propyl-imidazo[1,2-d]-as-triazin-8(7H)-one]
Mouse Skin Phosphodiesterase: Active

Cn1c(=O)c2[nH]cnc2n(C)c1=O [theophylline]
inhibition of skin phosphodiesterase, % of control (0.05 mM concentration of compound): 80 % of control | inhibition of skin phosphodiesterase, % of control (1 mM concentration of compound): 50 % of control

O=c1[nH]nc(-c2ccccc2)n2ccnc12 [5-phenyl-imidazo[1,2-d]-as-triazin-8(7H)-one]
Mouse Skin Phosphodiesterase: Active
